The results in this text go back to patent EP0071892A2, “Phospholipid derivatives, process for preparation thereof and pharmaceutical composition of the same” (priority 1981, dated 1983).

Experiment [1] has as its system Fibrosarcoma Meth A. Nature of the experiment: Test Method A: intradermally inoculated Meth A tumor in mice, intratumoral injection of test compound, tumor growth inhibition. The format is in vivo, BALB/c mice. The conditions noted are these: 100 µg/mouse intratumorally once daily from Day 1 to Day 4 postimplant; for Mean of two diameters of the growing tumor: 1 x 10^5 Meth A cells intradermally; for responders at 0.1 mg / inhibition in vivo at 0.1 mg: Meth-A; for responders at 0.1 mg: read-out: Ratio of tumor free mice [Number of tumor free mice/ Number of mice used as a group] (converted); for inhibition in vivo at 0.1 mg: Mus musculus, read-out: Tumor growth inhibition (%) [(1-T/c)x100]. Here is the method: Groups of six female BALB/c mice, aged 12 weeks and weighing 19 - 21 g were used.
Fib,rosarcoma Meth A (hereinafter referred to as Meth A) was successively transferred every 7 days into BALB/c mice by intraperitoneal inoculation of the ascites cells thereof and the Meth A in the ascites cells as harvested 6 days after the inoculation was used as tumor cells.
Each of the BALB/c mice was inoculated intradermally with 1 x 10^5 Meth A cells in 0.05 ml Hanks solution.
Test compound was dissolved in 0.5% methylcellulose saline solution, and was intratumorally injected to each of the mice in doses of 100 µg/mouse once daily from Day 1 to Day 4 postimplant.
The control group was given with a vehicle alone in the same way.
The antitumor effectiveness of the test compound was estimated by tumor growth inhibition (1-T/C). • T: Mean diameter of the growing tumor of the medicated group • C: Mean diameter of the growing tumor of the control group

The test system of experiment [2] is Fibrosarcoma Meth A. Nature of the experiment: Test Method B: intrapleurally inoculated Meth A tumor in mice, injection into pleural cavity, mean survival time. The format is in vivo, BALB/c mice. Also noted: dose or concentration left out as unconfirmed. The conditions noted are these: for Anti-tumor activity (%) *d: comparison of mean survival time of medicated group (T) and control group (C), into pleural cavity three times; for Mean survival time: into pleural cavity three times (before 14 days, after 1 hour and after 3 days of tumor implantation), 5 x 10^5 Meth A cells intrapleurally.
Protocol: Groups of eight female BALB/c mice, aged 8-9 weeks and weighing 18.0-22.5 g were used.
Fibrosarcoma Meth A (hereinafter referred to as Meth A) was successively transferred every 7 days into BALB/c mice by intraperitoneal inoculation of the ascites cells thereof and the Meth A in the ascites cells as harvested 6 or 7 days after the inoculation was used as tumor cells.
Each of the BALB/c mice was inoculated intrapleurally with 5 x 10^5 Meth A cells in 0.1 ml Hanks solution.
Test compound was dissolved in phosphate buffer saline solution, and was injected into pleural cavity to each of the mice in doses of 100 pg/0.05 ml/mouse three times, i.e. before 14 days, after 1 hour and after 3 days of tumor implantation.
The antitumor activity of the test compound was estimated by comparing mean survival time of the two groups. • T : Mean survival time of the medicated group • C : Mean survival time of the control group

Read-outs that look alike come from different tables or passages of the source.

Consider `CCCCCCCCCCCCCCCCCCOCC(COP(=O)([O-])OCC[n+]1cnn(C)c1)OC` (racemic) [3-(21), (rac)-1-0-Octadecyl-2-0-methyl-glycerol-3-[2-(1-methyl-1,2,4-triazol-4-io)ethyl]phosphate], for which, in the experiment on Fibrosarcoma Meth A [1] (Day 14), the “Mean of two diameters of the growing tumor” value was determined as 0 mm, the responders at 0.1 mg was 100% and the inhibition in vivo at 0.1 mg was 100%. Besides, in the experiment with Fibrosarcoma Meth A [1] (Day 21), the “Ratio of tumor free mice [Number of tumor free mice/ Number of mice used as a group]” value (“Ratio of tumor free mice” for short) is 6/6, the “Mean of two diameters of the growing tumor” value is 0 mm and the inhibition in vivo at 0.1 mg turned out to be 100%.
Turning to `CCCCCCCCCCCCCCCCCCOCC(COP(=O)([O-])OCC[n+]1ccccc1)OCC` (racemic) [3-(19), (rac)-1-0-Octadecyl-2-0-ethyl-glycerol-3-[2-(1-pyridinio)ethyl]phosphate], in the experiment with Fibrosarcoma Meth A [2], the “Anti-tumor activity (%) *d” value is 317% and the Mean survival time turned out to be 19.0 days.
For the compound `CCCCCCCCCCCCCCCCOCC(COP(=O)([O-])OCC[n+]1ccccc1)OCc1ccccc1` (racemic) [3-(26), (rac)-l-0-Hexadecyl-2-0-benzyl-glycerol-3-[2-(l-pyridinio)ethyl]phosphate], in the experiment with Fibrosarcoma Meth A [2], the “Anti-tumor activity (%) *d” value is listed as greater than 650% and the Mean survival time is greater than 39.0 days.
`CCCCCCCCCCCCCCCCCCOCC(COP(=O)([O-])OCC[n+]1ccc(C)cc1)OC` (racemic) [3-(9), (rac)-1-0-Octadecyl-2-0-methyl-glycerol-3-[2-(4-methyl-l-pyridinio)ethyl]phosphate]: in the experiment with Fibrosarcoma Meth A [2], the “Anti-tumor activity (%) *d” value is 350% and the Mean survival time came to 21.0 days.
In the same order, the values of `CCCCCCCCCCCCCCCCCCOCC(COP(=O)(O)OCCN1CCN(CC)CC1)OC` (racemic) [3-(3), (rac)-1-0-Octadecyl-2-0-methyl-glycerol-3-[2-(4-ethyl-l-piperazinyl)ethyl]phosphate] are 317% and 19.0 days.
In the same order, the values of `CCCCCCCCCCCCCCCCCCOCC(COP(=O)([O-])OCC[n+]1ccccc1)NC(=O)OCC` (racemic) [10-(6), (rac)-1-0-Octadecyl-2-ethoxycarbonylamino-1,3-propanediol-3-[2-(1-pyridinio)ethyl]phosphate] are less than 400% and 24.0 days.
As for `CCCCCCCCCCCCCCCCCCOCC(COP(=O)([O-])OCC[n+]1ccsc1)OC` (racemic) [3-(22), (rac)-1-O-Octadecyl-2-0-methyl-glycerol-3-[2-(3-thiazolio)ethyl]phosphate], in the experiment with Fibrosarcoma Meth A [1] (Day 21), the “Ratio of tumor free mice” value is 3/6 and the inhibition in vivo at 0.1 mg is 68%. Also, in the experiment on Fibrosarcoma Meth A [1] (Day 14), the responders at 0.1 mg is 50% and the inhibition in vivo at 0.1 mg was found to be 77%.
`CCCCCCCCCCCCCCCCCCOCC(COP(=O)(O)OCCN1CCN(C)CC1)OC` (racemic) [3-(16), (rac)-1-O-Octadecyl-2-0-methyl-glycerol-3-[2-(4-methyl-l-piperazinyl)ethyl]phosphate]: in the experiment on Fibrosarcoma Meth A [2], the “Anti-tumor activity (%) *d” value was 350% and the Mean survival time is 21.0 days.
Regarding `CCCCCCCCCCCCCCCCCCOCC(Cl)COP(=O)([O-])OCC[n+]1ccccc1` (racemic) [9-(4), (rac)-1-0-Octadecyl-2-chloro-1,3-propanediol-3-[2-(1-pyridinio)ethyl]phosphate], in the experiment on Fibrosarcoma Meth A [1] (Day 21), the “Ratio of tumor free mice” value is 4/6 and the inhibition in vivo at 0.1 mg was 86%. For the same compound, in the experiment with Fibrosarcoma Meth A [1] (Day 14), the responders at 0.1 mg was 66.7% and the inhibition in vivo at 0.1 mg is 92%.
For the compound `CCCCCCCCCCCCCCCCCCOCC(COP(=O)([O-])OCC[n+]1cccc(C(=O)OCC)c1)OC` (racemic) [3-(23), (rac)-1-0-Octadecyl-2-0-methyl-glycerol-3-[2-(3-ethoxycarbonyl-1-pyridinio)ethyl]phosphate], in the experiment on Fibrosarcoma Meth A [1] (Day 21), the “Ratio of tumor free mice” value is listed as 3/6 and the inhibition in vivo at 0.1 mg was determined as 70%. In the experiment on Fibrosarcoma Meth A [1] (Day 14), the responders at 0.1 mg is 50% and the inhibition in vivo at 0.1 mg came out at 77%.
In the same order, the values of `CCCCCCCCCCCCCCCCCCOCC(O)COP(=O)([O-])OCC[n+]1ccccc1` (racemic) [3-(30), (rac)-1-0-Octadecyl-glycerol-3-[2-(1-pyridinio)ethyl]-phosphate] are 4/6, 84%, 66.7% and 85%.
On to `CCCCCCCCCCCCCCCCCCOCCCOP(=O)([O-])OCC[n+]1ccccc1` [3-(29), (rac)-1-0-Octadecyl-1,3-propanediol-3-[2-(1-pyridinio)-ethyl]phosphate], for which, in the experiment on Fibrosarcoma Meth A [2], the “Anti-tumor activity (%) *d” value was determined as 264% and the Mean survival time was determined as 18.5 days.
The matching figures for `CCCCCCCCCCCCCCCCCCOCC(COP(=O)([O-])OCC[n+]1ccccc1)NC(=O)NC` (racemic) [11-(2), (rac)-1-0-Octadecyl-2-(N'-methylureido)-1,3-propanediol-3-[2-(l-pyridinio)ethyl]phosphate]: 350% and 21.0 days.
`CCCCCCCCCCCCCCCCCCOCC(COP(=O)([O-])OCC[n+]1cccn1C)OC` (racemic) [3-(18), (rac)-1-0-Octadecyl-2-0-methyl-glycerol-3-[2-(1-methyl-2-pyrazolio)ethyl]phosphate]: in the experiment with Fibrosarcoma Meth A [2], the “Anti-tumor activity (%) *d” value worked out at 325% and the Mean survival time is 19.5 days.
With `CCCCCCCCCCCCCCCCCCOCC(COP(=O)(O)OCCn1ccnc1)OC` (racemic) [3-(13), (rac)-1-0-Octadecyl-2-0-methyl-glycerol-3-[2-(1-imidazolyl)ethyl]phosphate], in the experiment with Fibrosarcoma Meth A [1] (Day 21), the “Ratio of tumor free mice” value is reported as 0/6 and the inhibition in vivo at 0.1 mg came to 31%. Moreover, in the experiment with Fibrosarcoma Meth A [1] (Day 14), the responders at 0.1 mg was 0% and the inhibition in vivo at 0.1 mg was 37%.
As to `CCCCCCCCCCCCCCCCCCOCC(COP(=O)([O-])OCCNC(=O)C[n+]1ccccc1)OC` (racemic) [5-(2), (rac)-1-0-Octadecyl-2-0-methyl-glycerol-3-[2-(1-pyridinioacetylamino)ethyl]phoshate], in the experiment with Fibrosarcoma Meth A [2], the “Anti-tumor activity (%) *d” value amounted to 364% and the Mean survival time came out at 25.5 days.
Regarding `CCCCCCCCCCCCCCCCCCOCC(COP(=O)([O-])OCC[n+]1ccccc1)Sc1nncs1` (racemic) [8-(4), (rac)-1-0-Octadecyl-2-(1,3,4-thiadiazolyl-2-thio)-1,3-propanediol-3-[2-(1-pyridinio)ethyl]phosphate], in the experiment on Fibrosarcoma Meth A [2], the “Anti-tumor activity (%) *d” value is recorded as 417% and the Mean survival time was 25.0 days.
Regarding “(rac)-1-O-Octadecyl-2-0-methyl-glycerol-3-[2-(N-methyl-4-morpholino)ethyl]phosphate [3-(15)]”, in the experiment on Fibrosarcoma Meth A [2], the “Anti-tumor activity (%) *d” value is 433% and the Mean survival time was found to be 26.0 days.
On to `CCCCCCCCCCCCCCCCCCOCC(COP(=O)([O-])OCC[n+]1ccn(C)c1)OC` (racemic) [3-(25), (rac)-1-0-Octadecyl-2-0-methyl-glycerol-3-[2-(1-methyl-3-imidazolio)ethyl]phosphate], for which, in the experiment with Fibrosarcoma Meth A [1] (Day 21), the “Ratio of tumor free mice” value is 5/6 and the inhibition in vivo at 0.1 mg worked out at 93%. In the experiment on Fibrosarcoma Meth A [1] (Day 14), the responders at 0.1 mg is 83.3% and the inhibition in vivo at 0.1 mg is 94%.
